From ChEMBL document CHEMBL4419180, “Compositions and methods for treating g protein coupled receptor mediated conditions” (2018)
The source made the active and inactive calls. The rule behind the calls is not given here. Non-standard residues stand in square brackets, D forms with d. Residues, ends and D or L forms follow the SMILES beside them. *: point of attachment. Boc = CC(C)(C)OC(=O)*; OBn = c1ccc(CO*)cc1; For = O=C*

Key:
[1] = molecular target: Mas-related G-protein coupled receptor member X4 (Homo sapiens) (UniProt Q96LA9); assay: Antagonist activity at recombinant human MrgprX4 expressed in HEK293 cells assessed as blockade of bilirubin-induced inositol phosphate accumulation incubated for 1 hr at 37 degC followed by incubation for 30 mins at room temperature before bilirubin addition by HTRF assay relative to control; format: functional, cell-based
[2] = molecular target: Mas-related G-protein coupled receptor member X4 (Homo sapiens) (UniProt Q96LA9); assay: Inverse agonist activity at recombinant human MrgprX4 expressed in HEK293 cells assessed as reduction in inositol phosphate accumulation incubated for 1 hr at 37 degC followed by incubation for 30 mins at room temperature by HTRF assay relative to baseline; format: functional, cell-based
Mus musculus [3] = assay: Suppression of bilirubin-induced pruritus in mouse assessed as reduction in scratching bouts in 30 mins at 0.25 mg/kg co-injected with bilirubin; format: functional, organism-based
Mus musculus [4] = assay: Suppression of chloroquine-induced pruritus in mouse assessed as reduction in scratching bouts in 30 mins at 1 mg/kg co-injected with chloroquine; format: functional, organism-based
Mus musculus [5] = assay: Suppression of ANIT-induced cholestatic pruritus in mouse assessed as reduction in scratching bouts in 30 mins at 1 mg/kg, ip 30 mins before behavioral analysis; format: functional, organism-based
Mus musculus [6] = assay: Suppression of ANIT-induced cholestatic liver injury in mouse assessed as effect on total bilirubin at 1 mg/kg, ip; format: functional, organism-based
Mus musculus [7] = assay: Suppression of ANIT-induced cholestatic liver injury in mouse assessed as effect on ALT level at 1 mg/kg, ip; format: functional, organism-based
Mus musculus [8] = assay: Suppression of ANIT-induced cholestatic liver injury in mouse assessed as effect on AST level at 1 mg/kg, ip; format: functional, organism-based
Mus musculus [9] = assay: Suppression of ANIT-induced cholestatic liver injury in mouse assessed as effect on ALP level at 1 mg/kg, ip; format: functional, organism-based

Sequence of Mas-related G-protein coupled receptor member X4 (Homo sapiens) (Q96LA9 whole entry): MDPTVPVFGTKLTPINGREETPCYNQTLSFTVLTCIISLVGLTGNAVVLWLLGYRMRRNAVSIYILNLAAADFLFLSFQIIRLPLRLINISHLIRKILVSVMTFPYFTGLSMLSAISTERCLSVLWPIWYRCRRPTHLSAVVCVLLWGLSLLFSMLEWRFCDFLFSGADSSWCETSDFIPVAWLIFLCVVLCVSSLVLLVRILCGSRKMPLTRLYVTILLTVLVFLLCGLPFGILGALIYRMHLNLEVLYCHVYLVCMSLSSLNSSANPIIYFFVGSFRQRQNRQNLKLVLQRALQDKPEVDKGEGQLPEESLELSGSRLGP

Structure (SMILES)	inhibition [1]	fold change (FC) [2]	also measured
O=C(NCc1cc2ccccc2[nH]1)c1cc(-c2ccccn2)nc2ccc(Br)cc12	85%	2 to 3	
Nc1nc2ccccc2n1CCOc1ccccc1Cl	70 to 85%	2 to 3	
Cc1nc(-c2ccnn2Cc2ccc(Cl)cc2)[nH]c1-c1ccccc1	85%	3	
Cc1c(C(=O)NCc2ccccc2C(F)(F)F)ncn1Cc1ccc(Cl)cc1	85%	3	
CC(C)(C)OC(=O)N[C@@H](CCC(N)=O)C(=O)N[C@H](Cc1cn(C=O)c2ccccc12)C(=O)N[C@@H](Cc1ccccc1)C(=O)OCc1ccccc1 (Boc-Gln-[dW](For)-Phe-OBn)			Activity (Mus musculus [3]): Active; Activity (Mus musculus [4]): inactive; Activity (Mus musculus [5]): Active; Activity (Mus musculus [6]): inactive; Activity (Mus musculus [7]): inactive; Activity (Mus musculus [8]): inactive; Activity (Mus musculus [9]): inactive
